The source of these data is patent US8563714B2, “Bridged spiro [2.4] heptane derivatives as ALX receptor and/or FPRL2 agonists” (Actelion Pharmaceuticals Ltd., priority 2009, dated 2013).

For assay [1], the target named is T1, human ALX receptor (Homo sapiens, UniProt P25090).
T1 construct: expressed in transfected cells; host or cells: HEK293 (HEK293-hALXR-Gα16)
T1 sequence (P25090 1-351): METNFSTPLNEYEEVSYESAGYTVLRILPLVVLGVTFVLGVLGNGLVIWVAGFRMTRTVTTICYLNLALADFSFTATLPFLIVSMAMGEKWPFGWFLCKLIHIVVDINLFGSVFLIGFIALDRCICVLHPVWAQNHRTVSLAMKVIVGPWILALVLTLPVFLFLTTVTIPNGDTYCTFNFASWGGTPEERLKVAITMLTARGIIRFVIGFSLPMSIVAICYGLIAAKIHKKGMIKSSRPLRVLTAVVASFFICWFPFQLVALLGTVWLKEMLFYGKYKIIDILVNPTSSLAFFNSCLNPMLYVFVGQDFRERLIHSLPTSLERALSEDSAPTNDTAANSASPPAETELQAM
The assay is described as follows: Intracellular calcium measurements (FLIPR), agonistic activity in HEK293-hALXR-Gα16 cells. In kind it is cell-based. Particulars: Fluo-4 calcium FLIPR, normalized to WKYMVm 10 nM. The method in brief: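 Agonist-induced calcium flux was recorded by FLIPR (488/540 nm) in HEK293-hALXR-Gα16 cells pre-loaded with Fluo-4 AM (1 μM, 60 min, 37°C). Peak signal above baseline, after subtracting buffer addition, was expressed relative to WKYMVm at 10 nM final.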

Assay [2] has as its target T2, human FPRL2 (Homo sapiens, UniProt P25089).
T2 construct: expressed in transfected cells; host or cells: HEK293 (HEK293-hFPRL2-Gα16)
T2 sequence (P25089 1-353): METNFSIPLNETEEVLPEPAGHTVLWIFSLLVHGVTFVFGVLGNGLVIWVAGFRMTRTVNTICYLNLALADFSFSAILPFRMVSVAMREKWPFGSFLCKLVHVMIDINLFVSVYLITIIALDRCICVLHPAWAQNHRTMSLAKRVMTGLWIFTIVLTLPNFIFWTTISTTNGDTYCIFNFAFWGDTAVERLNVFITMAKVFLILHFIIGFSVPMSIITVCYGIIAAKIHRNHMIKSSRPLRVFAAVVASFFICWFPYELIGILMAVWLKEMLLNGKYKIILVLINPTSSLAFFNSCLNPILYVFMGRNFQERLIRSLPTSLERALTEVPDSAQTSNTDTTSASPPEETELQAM
The assay is described as follows: Intracellular calcium measurements (FLIPR), agonistic activity in HEK293-hFPRL2-Gα16 cells. In kind it is cell-based. Particulars: Fluo-4 calcium FLIPR, normalized to GLY14-Humanin 100 nM. In outline: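 Peak values after baseline subtraction are expressed relative to 100 nM Gly14-Humanin; compounds diluted in assay buffer from 10 mM DMSO stocks.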

As to `O=C(NCCCCN1CCCC1)[C@H]1[C@H](C(=O)NCc2cc(C(F)(F)F)ccc2F)[C@@H]2C=C[C@H]1C21CC1` (racemic) [Example 365, (5R*)—N^5-(2-Fluoro-5-trifluoromethylphenyl-methyl)-(6R*)—N^6-(4-pyrrolidino-butyl)-(4S*,7R*)-[4,7-ethenylene-spiro[2.4]heptane]-5,6-dicarboxamide], the EC50 in assay [1] was 9970 nM; in assay [2] it was 350 nM.

For the compound `O=C(NCCO)[C@H]1[C@H](C(=O)Nc2ccc(Br)cc2)[C@@H]2C=C[C@H]1C21CC1` (racemic) [Example 34, (5R*)—N^5-(4-Bromophenyl)-(6R*)—N^6-(2-hydroxy-ethyl)-(4S*,7R*)-[4,7-ethenylene-spiro[2.4]heptane]-5,6-dicarboxamide], the values for the half-maximal effective concentration (EC50) in assay [1] and in assay [2] were 6.1 nM and 16100 nM, respectively.

On to `O=C(NCCCCN1CCCC1)[C@H]1[C@H](C(=O)NCc2ccc(F)cc2)[C@@H]2C=C[C@H]1C21CC1` (racemic) [Example 231, (5R*)—N^5-(4-Fluoro-phenyl-methyl)-(6R*)—N^6-(4-pyrrolidin-1-yl-butyl)-(4S*,7R*)-[4,7-ethenylene-spiro[2.4]heptane]-5,6-dicarboxamide], for which the results for the concentration giving a half-maximal response (EC50) in assay [1] and in assay [2] were 514 nM and 159 nM, respectively.

Take `O=C(CCc1ccc(F)cc1)NC[C@H]1[C@H](C(=O)Nc2ccc(Br)cc2)[C@@H]2C=C[C@H]1C21CC1` (racemic) [Example 188, (5R*)—N^5-(4-Bromo-phenyl)-(6R*)-6-[(3-(4-fluoro-phenyl)-propionylamino)-methyl]-(4S*,7R*)-[4,7-ethenylene-spiro[2.4]heptane]-5-carboxamide]: the EC50 in assay [1] is 529 nM; in assay [2] it was 1920 nM.

In the case of `O=C(NCCCCN1CCCC1)[C@H]1[C@H](C(=O)Nc2nc(-c3ccccc3)ns2)[C@@H]2C=C[C@H]1C21CC1` (racemic) [Example 153, (5R*)—N^5-(3-Phenyl-[1,2,4]thiadiazol-5-yl)-(6R*)—N^6-(4-pyrrolidin-1-yl-butyl)-(4S*,7R*)-[4,7-ethenylene-spiro[2.4]heptane]-5,6-dicarboxamide], the EC50 in assay [1] came to 9890 nM; in assay [2] it was 91 nM.

`O=C(NCCc1ccccn1)[C@H]1[C@H](C(=O)Nc2ccc(Br)cc2)[C@@H]2C=C[C@H]1C21CC1` (racemic) [Example 70, (5R*)—N^5-(4-Bromophenyl)-(6R*)—N^6-(2-pyridin-2-yl-ethyl)-(4S*,7R*)-[4,7-ethenylene-spiro[2.4]heptane]-5,6-dicarboxamide]: the concentration giving a half-maximal response (EC50) came out at 61 nM in assay [1] and 4380 nM in assay [2].

Consider `Cc1cc(C)n(CCC(=O)NCC2C(C(=O)Nc3ccc(Br)cc3)C3C=CC2C32CC2)n1` (stereo not drawn) [Example 159, (5R*)—N^5-(4-Bromo-phenyl)-(6R*)-6-[(3-(3,5-dimethyl-pyrazol-1-yl)-propionylamino)-methyl]-(4S*,7R*)-[4,7-ethenylene-spiro[2.4]heptane]-5-carboxamide], for which the half-maximal effective concentration (EC50) was found to be 13 nM in assay [1] and 2370 nM in assay [2].

On to `COCCN(CCOC)C(=O)C1C(C(=O)Nc2ccc(Br)cc2)C2C=CC1C21CC1` (racemic) [Example 35, (5R*)—N^5-(4-Bromophenyl)-(6R*)—N^6,N^6-bis-(2-methoxy-ethyl)-(4S*,7R*)-[4,7-ethenylene-spiro[2.4]heptane]-5,6-dicarboxamide], for which the EC50 in assay [1] came to 6.1 nM; in assay [2], 1870 nM.

In the case of `O=C(NCCCCN1CCCC1)[C@H]1[C@H](C(=O)NCc2ccc(Br)cc2)[C@@H]2C=C[C@H]1C21CC1` [Example 286, (5R)—N^5-(4-Bromophenyl-methyl)-(6R)—N^6-(4-pyrrolidino-butyl)-(4S,7R)-[4,7-ethenylene-spiro[2.4]heptane]-5,6-dicarboxamide], the EC50 in assay [1] and in assay [2] was 32 nM in each case.

Regarding `O=C(NCCCCN1CCCC1)[C@H]1[C@H](C(=O)Nc2ccc(Br)cc2)[C@@H]2CC[C@H]1C21CC1` [Example 113, (5R)—N^5-(4-Bromophenyl)-(6R)—N^6-(4-pyrrolidin-1-yl-butyl)-(4S,7R)-[4,7-ethylene-spiro[2.4]heptane]-5,6-dicarboxamide], the EC50 in assay [1] is 0.35 nM; in assay [2], 15 nM.

On to `O=C(NCCCCN1CCCC1)[C@H]1[C@H](C(=O)NCCc2ccc(Cl)cc2)[C@@H]2C=C[C@H]1C21CC1` [Example 387, (5R)—N^5-(2-(4-Chlorophenyl)ethyl)-(6R)—N^6-(4-pyrrolidino-butyl)-(4S,7R)-[4,7-ethenylene-spiro[2.4]heptane]-5,6-dicarboxamide], for which the figures for the EC50 in assay [1] and in assay [2] were 8270 nM and 26 nM, respectively.

For the compound `N#Cc1cnc(NC(=O)[C@H]2[C@H](C(=O)NCCCCN3CCCC3)[C@H]3C=C[C@@H]2C32CC2)s1` (racemic) [Example 130, (5R*)—N^5-(5-Cyano-thiazol-2-yl)-(6R*)—N^6-(4-pyrrolidin-1-yl-butyl)-(4S*,7R*)-[4,7-ethenylene-spiro[2.4]heptane]-5,6-dicarboxamide], the concentration for a half-maximal effect (EC50) in assay [1] was determined as 166 nM; in assay [2], 6370 nM.

In the case of `O=C(NCCCCN1CCCC1)[C@H]1[C@H](C(=O)NCc2cccc(Cl)c2F)[C@@H]2C=C[C@H]1C21CC1` (racemic) [Example 349, (5R*)—N^5-(3-Chloro-2-fluorophenyl-methyl)-(6R*)—N^6-(4-pyrrolidino-butyl)-(4S*,7R*)-[4,7-ethenylene-spiro[2.4]heptane]-5,6-dicarboxamide], the half-maximal effective concentration (EC50) in assay [1] worked out at 4720 nM; in assay [2], 200 nM.

`O=C(NCCCCN1CCCC1)[C@H]1[C@H](C(=O)Nc2nc(Br)cs2)[C@@H]2C=C[C@H]1C21CC1` [Example 394, (5R)—N^5-(4-Bromo-thiazol-2-yl)-(6R)—N^6-(4-pyrrolidino-butyl)-(4S,7R)-[4,7-ethenylene-spiro[2.4]heptane]-5,6-dicarboxamide]: the EC50 amounted to 1550 nM in assay [1] and 166 nM in assay [2].

As to `CC(=O)c1csc(CNC(=O)[C@H]2[C@H](C(=O)NCC3CCNCC3)[C@H]3C=C[C@@H]2C32CC2)n1` (racemic) [Example 300, (5R*)—N^5-(4-Acetyl-thiazol-2-yl-methyl)-(6R*)—N^6-(piperidin-4-yl-methyl)-(4S*,7R*)-[4,7-ethenylene-spiro[2.4]heptane]-5,6-dicarboxamide], the EC50 is 384 nM in assay [1] and 1820 nM in assay [2].

As to `O=C(NCCN1CCNC1=O)[C@H]1[C@H](C(=O)NCc2ccc(Br)cc2)[C@@H]2C=C[C@H]1C21CC1` (racemic) [Example 275, (5R*)—N^5-(4-Bromophenyl-methyl)-(6R*)—N^6-((2-imidazolidin-2-on)-1-yl-ethyl)-(4S*,7R*)-[4,7-ethenylene-spiro[2.4]heptane]-5,6-dicarboxamide], the figures for the EC50 in assay [1] and in assay [2] were 181 nM and 7040 nM, respectively.

Regarding `CC(C)CNC(=O)[C@H]1[C@H](C(=O)Nc2ccc(Br)cc2)[C@@H]2C=C[C@H]1C21CC1` (racemic) [Example 4, (5R*)—N^5-(4-Bromophenyl)-(6R*)—N^6-(3-isobutyl)-(4S*,7R*)-[4,7-ethenylene-spiro[2.4]heptane]-5,6-dicarboxamide], the EC50 in assay [1] was determined as 0.24 nM; in assay [2], 5310 nM.
